Read-outs that look alike come from different tables or passages of the source.

The target in one experiment is T1, MAO-B (Rattus norvegicus, UniProt P19643).
T1 construct: mitochondria prepared from the liver of rats; from tissue; host or cells: rat liver mitochondria
T1 sequence (P19643 1-520): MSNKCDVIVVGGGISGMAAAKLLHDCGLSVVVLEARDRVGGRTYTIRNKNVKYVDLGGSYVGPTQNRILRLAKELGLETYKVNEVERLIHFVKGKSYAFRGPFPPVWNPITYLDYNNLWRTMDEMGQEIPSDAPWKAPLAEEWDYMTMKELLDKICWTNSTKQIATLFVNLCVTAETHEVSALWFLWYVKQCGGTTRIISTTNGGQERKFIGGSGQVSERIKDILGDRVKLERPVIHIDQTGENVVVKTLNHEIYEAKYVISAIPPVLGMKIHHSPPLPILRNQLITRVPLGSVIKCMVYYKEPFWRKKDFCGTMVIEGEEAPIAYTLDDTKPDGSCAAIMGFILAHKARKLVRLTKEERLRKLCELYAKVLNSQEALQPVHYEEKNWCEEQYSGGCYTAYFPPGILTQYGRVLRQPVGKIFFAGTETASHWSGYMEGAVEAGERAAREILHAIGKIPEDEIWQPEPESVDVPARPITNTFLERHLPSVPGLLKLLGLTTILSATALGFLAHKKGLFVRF
The experiment in a line: In vitro inhibition of monoamine oxidase B (oxygen electrode, rat liver mitochondria, substrate benzylamine). It is filed as biochemical. To be noted: for MAO-A/MAO-B: ratio of IC50 values MAO-A/MAO-B. On the procedure:
(§1) The MAO-inhibitory activity of the compounds of the present invention was determined according to an MAO-inhibitory activity determining method using the oxygen electrode disclosed in K. F. Tipton et al., Biochem. J., 1968,108, pp. 95-99.
(§2) A potassium phosphate buffer solution of mitochondria prepared from the liver of rats was preincubated at 37° C. with or without a compound of the present invention and then a substrate was added to the mixture to thus initiate the reaction at that temperature while the dissolved oxygen-consuming reaction due to MAO activity in the reaction solution was monitored by the oxygen electrode. In this respect, the substrates used were serotonin (5-HT) for the MAO-A activity determination and benzylamine (BA) for the MAO-B activity determination. The MAO-inhibitory activity was evaluated in terms of an IC5.sbsb.0 value which is the concentration of a compound tested required for reducing the rate of oxygen-consuming reaction performed in the presence of the compound to 50% of that of the reaction performed in the absence of the compound.

The target in another experiment is T2, MAO-A (Rattus norvegicus, UniProt P21396).
T2 construct: mitochondria prepared from the liver of rats; from tissue; host or cells: rat liver mitochondria
T2 sequence (P21396 1-526): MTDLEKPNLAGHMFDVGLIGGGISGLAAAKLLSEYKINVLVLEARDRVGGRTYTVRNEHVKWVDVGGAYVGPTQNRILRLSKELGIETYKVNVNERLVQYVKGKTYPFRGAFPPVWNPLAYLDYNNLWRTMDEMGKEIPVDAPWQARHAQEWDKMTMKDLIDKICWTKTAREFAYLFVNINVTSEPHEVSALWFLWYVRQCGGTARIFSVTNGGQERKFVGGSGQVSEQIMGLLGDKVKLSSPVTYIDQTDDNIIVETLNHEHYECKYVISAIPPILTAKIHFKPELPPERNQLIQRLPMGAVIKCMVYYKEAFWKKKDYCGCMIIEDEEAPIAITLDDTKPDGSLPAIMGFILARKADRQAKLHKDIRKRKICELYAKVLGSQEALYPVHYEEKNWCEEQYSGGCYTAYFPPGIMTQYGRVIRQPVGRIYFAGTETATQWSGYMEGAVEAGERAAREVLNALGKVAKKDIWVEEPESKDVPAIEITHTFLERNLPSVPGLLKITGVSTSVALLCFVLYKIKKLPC
The experiment in a line: In vitro inhibition of monoamine oxidase A (oxygen electrode, rat liver mitochondria, substrate serotonin). Format: biochemical. On the procedure:
as §1, §2

[1] abbreviates: rat liver mitochondria, 37° C., preincubated, substrate benzylamine (BA), read-out: IC50 MAO-B.
[2] abbreviates: rat liver mitochondria, 37° C., preincubated, substrate serotonin (5-HT), read-out: IC50 MAO-A.

As usually defined, the IC50 is the midpoint of a concentration-inhibition curve. Consider `CCc1nc(-c2ccc(OCCCn3ccnc3)cc2)no1` [Example 1, 3-[4-[3-(1H-imidazol-1-yl)propoxy]phenyl]-5-ethyl-1,2,4-oxadiazole], for which the results for the IC50 on MAO-B (setting [1]) and at MAO-A (setting [2]) were 0.3 µM and 200 µM, respectively. Further, the MAO-A/MAO-B on MAO-B is given as 670.
Regarding `ClC(Cl)(Cl)c1nc(-c2ccc(OCCCn3ccnc3)cc2)no1` [Example 2, 3-[4-[3-(1H-imidazol-1-yl)propoxy]phenyl]-5-tri chloromethyl-1,2,4-oxadiazole], the values for the IC50 on MAO-B (setting [1]) and on MAO-A (setting [2]) were 0.03 µM and 200 µM, respectively. Moreover, the MAO-A/MAO-B at MAO-B is reported as 6700.
With `CCCc1nc(-c2ccc(OCCCn3ccnc3)cc2)no1` [Example 3, 3-[4-[3-(1H-imidazol-1-yl)propoxy]phenyl]-5-propyl-1,2,4-oxadiazole], the half-maximal inhibitory concentration (IC50) came out at 1 µM at MAO-B (setting [1]) and 200 µM on MAO-A (setting [2]). The MAO-A/MAO-B at MAO-B was 200.
With `c1cn(CCCOc2ccc(-c3noc(C4CC4)n3)cc2)cn1` [Example 4, 3-[4-[3-(1H-imidazol-1-yl)propoxy]phenyl]-5-cyclo-propyl-1,2,4-oxadiazole], the IC50 is 2 µM at MAO-B (setting [1]) and 100 µM at MAO-A (setting [2]). In addition, the MAO-A/MAO-B at MAO-B is given as 50.
For the compound `c1ccc(-c2nc(-c3ccc(OCCCn4ccnc4)cc3)no2)cc1` [Example 5, 3-[4-[3-(1H-imidazol-1-yl)propoxy]phenyl]-5-phenyl-1,2,4-oxadiazole], the IC50 on MAO-B (setting [1]) turned out to be 50 µM; on MAO-A (setting [2]), 100 µM. Also, on MAO-B, the MAO-A/MAO-B is 2.
On to `CCc1nc(-c2ccc(OCCCn3ccnc3C)cc2)no1` [Example 6, 3-[4-[3-(2-methyl-1H-imidazol-1-yl)propoxy]phenyl]-5-ethyl-1,2,4-oxadiazole], for which the half-maximal inhibitory concentration (IC50) at MAO-B (setting [1]) and at MAO-A (setting [2]) was 150 µM each time. The MAO-A/MAO-B at MAO-B was 1.
In the case of `CCc1nc(-c2ccc(OCCCn3cnc4ccccc43)cc2)no1` [Example 7, 3-[4-[3-(1H-benzimidazol-1-yl)propoxy]phenyl]-5-ethyl-1,2,4-oxadiazole], the IC50 on MAO-B (setting [1]) worked out at 160 µM; at MAO-A (setting [2]), 150 µM. For the same compound, at MAO-B, the MAO-A/MAO-B came out at 0.9.
Consider `CCc1nc(-c2ccc(OCCCN(CC)CC)cc2)no1` [Example 8, 3-[4-(3-diethylaminopropoxy)phenyl]-5-ethyl-1,2,4-oxadiazole], for which the IC50 was found to be 25 µM on MAO-B (setting [1]) and 100 µM at MAO-A (setting [2]). For the same compound, the MAO-A/MAO-B on MAO-B was found to be 4.
Take `CCCN(CCC)CCCOc1ccc(-c2noc(-c3ccccc3)n2)cc1` [Example 9, 3-[4-(3-dipropylaminopropoxy)phenyl]-5-phenyl-1,2,4-oxadiazole]: the 50% inhibitory concentration (IC50) on MAO-B (setting [1]) is 50 µM; at MAO-A (setting [2]) it was 100 µM. The MAO-A/MAO-B on MAO-B came out at 2.
Regarding `CCc1nc(-c2ccc(OCCCN3C(=O)c4ccccc4C3=O)cc2)no1` [Example 10, 3-[4-(3-phthalimidopropoxy)phenyl]-5-ethyl-1,2,4-oxadiazole], the IC50 at MAO-B (setting [1]) and at MAO-A (setting [2]) was 100 µM in each case. For the same compound, the MAO-A/MAO-B at MAO-B is listed as 1.
In the case of `CCc1nc(-c2ccc(OCCCN3CCOCC3)cc2)no1` [Example 11, 3-[4-(3-morpholinopropoxy)phenyl]-5-ethyl-1,2,4-oxadiazole], the results for the half-maximal inhibitory concentration (IC50) on MAO-B (setting [1]) and on MAO-A (setting [2]) were 100 µM and 200 µM, respectively. In addition, the MAO-A/MAO-B at MAO-B is given as 2.
`CCc1nc(-c2ccc(OCCCN3CCCCC3)cc2)no1` [Example 12, 3-[4-(3-piperidinopropoxy)phenyl]5-ethyl-1,2,4-oxadiazole]: the IC50 at MAO-B (setting [1]) and on MAO-A (setting [2]) was 100 µM each time. For the same compound, the MAO-A/MAO-B on MAO-B amounted to 1.
Turning to `CCc1nc(-c2ccc(OCCCN3CCN(C)CC3)cc2)no1` [Example 13, 3-[4-[3-(4-methylpiperazinyl)propoxy]phenyl]-5-ethyl-1,2,4-oxadiazole], the IC50 at MAO-B (setting [1]) and at MAO-A (setting [2]) was 100 µM throughout. In addition, the MAO-A/MAO-B at MAO-B worked out at 1.
On to `CCc1nc(-c2ccc(OCCCc3cccnc3)cc2)no1` [Example 14, 3-[4-[3-(3-pyridyl)propoxy]phenyl]-5-ethyl-1,2,4-oxadiazole], for which the values for the IC50 at MAO-B (setting [1]) and at MAO-A (setting [2]) were 20 µM and 100 µM, respectively. For the same compound, the MAO-A/MAO-B at MAO-B amounted to 5.
As to `CCc1nc(-c2ccc(OCCCc3ccccc3)cc2)no1` [Example 15, 3-[4-(3-phenylpropoxy)phenyl]-5-ethyl-1,2,4-oxadiazole], the IC50 at MAO-B (setting [1]) and on MAO-A (setting [2]) was 200 µM in each case. For the same compound, the MAO-A/MAO-B on MAO-B worked out at 1.
On to `CCCOc1ccc(-c2noc(CC)n2)cc1` [Example 16, 3-(4-propoxy)phenyl-5-ethyl-1,2,4-oxadiazole], for which the IC50 at MAO-B (setting [1]) was found to be 10 µM; at MAO-A (setting [2]) it was 48 µM. Besides, on MAO-B, the MAO-A/MAO-B was 4.8.
`O=C1CCCN1CCCOc1ccc(-c2noc(-c3ccccc3)n2)cc1` [Example 17, 3-[4-[3-(2-oxopyrrolidin-1-yl)propoxy]phenyl]-5-phenyl-1,2,4-oxadiazole]: the 50% inhibitory concentration (IC50) on MAO-B (setting [1]) and on MAO-A (setting [2]) was 100 µM each time. Further, on MAO-B, the MAO-A/MAO-B came to 1.
Regarding `CCc1nc(-c2ccc(OCCn3ccnc3)cc2)no1` [Example 18, 3-[4-[2-(1H-imidazol-1-yl)ethoxy]phenyl]-5-ethyl-1,2,4-oxadiazole], the IC50 was found to be 60 µM on MAO-B (setting [1]) and 90 µM on MAO-A (setting [2]). Besides, the MAO-A/MAO-B on MAO-B amounted to 1.5.
The corresponding values for `CCc1nc(-c2ccc(OCc3ccccc3)cc2)no1` [Example 19, 3-(4-benzyloxy)phenyl-5-ethyl-1,2,4-oxadiazole] are 8 µM, 100 µM and 13.
For the compound `ClC(Cl)(Cl)c1nc(-c2ccc(OCc3ccccc3)cc2)no1` [Example 20, 3-(4-benzyloxy)phenyl-5-trichloromethyl-1,2,4-oxadiazole], at MAO-B, the IC50 amounted to 9.5 µM and the MAO-A/MAO-B is given as 11. For the same compound, on MAO-A, the IC50 came to 100 µM.
`FC(F)(F)c1nc(-c2ccc(OCCCn3ccnc3)cc2)no1` [Example 21, 3-[4-[3-(1H-imidazol-1-yl)propoxy]phenyl]-5-trifluoromethyl-1,2,4-oxadiazole]: the IC50 worked out at 0.03 µM at MAO-B (setting [1]) and 200 µM at MAO-A (setting [2]). In addition, the MAO-A/MAO-B on MAO-B is 6700.
For `FC(F)(F)C(F)(F)c1nc(-c2ccc(OCCCn3ccnc3)cc2)no1` [Example 22, 3-[4-[3-(1H-imidazol-1-yl)propoxy]phenyl]-5-penta-fluoroethyl-1,2,4-oxadiazole], the IC50 on MAO-B (setting [1]) was found to be 0.09 µM; at MAO-A (setting [2]), 100 µM. Further, the MAO-A/MAO-B at MAO-B is given as 1100.
With `FC(F)(F)C(F)(F)C(F)(F)c1nc(-c2ccc(OCCCn3ccnc3)cc2)no1` [Example 23, 3-[4-[3-(1H-imidazol-1-yl)propoxy]phenyl]-5-hepta-fluoropropyl-1,2,4-oxadiazole], on MAO-B, the half-maximal inhibitory concentration (IC50) turned out to be 4.7 µM and the MAO-A/MAO-B is recorded as 21. The compound also showed a half-maximal inhibitory concentration (IC50) at MAO-A of 100 µM.
With `Cc1nc(-c2ccc(OCCCn3ccnc3)cc2)no1` [Example 24, 3-[4-[3-(1H-imidazol-1-yl)propoxy]phenyl]-5-methyl-1,2,4-oxadiazole], the values for the IC50 on MAO-B (setting [1]) and on MAO-A (setting [2]) were 2.4 µM and 550 µM, respectively. Also, the MAO-A/MAO-B on MAO-B came out at 230.
On to `CCCN(CCC)CCCOc1ccc(-c2noc(C)n2)cc1` [Example 25, 3-[4-(3-dipropylaminopropoxy)phenyl]-5-methyl-1,2,4-oxadiazole], for which the IC50 at MAO-B (setting [1]) was found to be 1 µM; at MAO-A (setting [2]) it was 100 µM. Besides, the MAO-A/MAO-B on MAO-B worked out at 100.
As for `Cc1nc(-c2ccc(OCc3cccnc3)cc2)no1` [Example 26, 3-(4-(3-pyridylmethyloxy)phenyl]-5-methyl-1,2,4-oxadiazole], the IC50 at MAO-B (setting [1]) came to 30 µM; on MAO-A (setting [2]), 100 µM. Further, the MAO-A/MAO-B at MAO-B was 3.3.

For the origin of these results see US5356916A, “1,2,4-oxadiazole derivatives having monoamine oxidase B enzyme-inhibitory activity” (Wakamoto Pharmaceutical Co., Ltd., priority 1991, dated 1994).
